Where two headings read alike, the source gives them in different places.

For one series, the system named is rat adipocytes. Put plainly: Antilipolytic activity in rat adipocytes (in vitro lipolysis assay, glycerol production). In kind it is cell-based. The note with it: for EC50: read-out: EC50 (50% inhibition of glycerol production); for inhibition at 1 µM: read-out: % Inhibition of glycerol production, 1 μM. As to the method:
Adipose tissue is removed from anesthetized rats and rinsed twice in incubation medium (2.09 g sodium bicarbonate and 0.04 g EDTA, disodium salt, in 1 L Krebs buffer). Each rat (300-350g) yields approximately 4 ml of adipose tissue. The adipose tissue (35 mL) is cut into small pieces with scissors and washed with incubation medium (50 mL). The mixture is poured into the barrel of a 50 mL syringe to which is attached a short piece of clamped tubing instead of a needle. The aqueous phase is allowed to drain. A second wash with incubation medium is passed through the syringe. The tissue is added to 50 mL of collagenase solution (collagenase (90 mg), bovine serum albumin (BSA) (500 mg), and 0.1 M calcium chloride solution (1 mL), in incubation medium (50 mL)) in a 1 L bottle. The mixture is shaken in an environmental at 37 ° C. for about 60 minutes under an atmosphere of 95% oxygen/5% carbon dioxide to effect digestion of the tissue. The dispersed cells are poured through 2 layers of cheese cloth into a 100 mL plastic beaker. The undigested clumps in the cloth are rinsed once with incubation medium (20 mL). The cells in the beaker are centrifuged in 2 plastic tubes for 30 seconds at room temperature at 300 rpm. The aqueous phase is aspirated from beneath the loosely packed layer of floating fat cells and discarded. The adipocytes are gently poured into a 250 mL plastic beaker containing 100 mL of rinse solution (1 g BSA per 100 mL incubation medium). After gentle stirring the centrifugation step is repeated. Another wash with rinse solution follows. The cells are pooled and their volume is estimated with a graduated cylinder. The adipocytes are diluted in twice their volume of assay buffer (incubation medium (120 mL), BSA (1.2 g), pyruvic acid (13 mg)).
The assay is performed in 20 mL plastic scintillation vials and the total assay volume is 4.2 ml. Assay buffer (2.5 mL), diluted adipocytes (1.5 mL), and a solution of the compound to be tested (12.3 μL) adenosine agonist (12.3 μL; varying concentration) is incubated in the environmental shaker for 15 minutes, then the reaction is started with norepinephrine solution (41.2 μL) (10 nM, in a carrier solution containing water (100 mL), BSA (4 mg), and 0.1 M EDTA (20 μL))and adenosine deaminase (1 μg/ml, 41.2 μL). After sixty minutes in the shaker the reaction is terminated by putting the vials on ice. […] The hard lipid layer is removed by aspiration and the aqueous layer is assayed for glycerol (400 μL of sample). The positive control is done in the absence of any adenosine agonist, substituting water in place of the solution to be tested.

The test system of a further series is swine coronary arteries. Put plainly: In vitro vasorelaxation in isolated swine coronary arteries. The format is cell-based. The protocol: Swine coronary arteries are obtained from a local slaughter house, dissected carefully and cleaned of fat, blood and adhering tissue. Rings approximately 2-3 mm wide are cut and transferred to water-jacketed tissue baths (10 mL) filled with warm (37° C.), oxygenated (O2/CO2:95%/5%) Krebs-Henseleit buffer and mounted on L-shaped hooks between stainless steel rods and a force transducer. […] PGF2a, before being exposed to 3 μM PGF2a.

The target in the next series is T1, A2 receptor (Rattus norvegicus, UniProt P30543).
T1 construct: using membranes from rat brain striatum; from tissue; host or cells: rat brain striatum membranes
Put plainly: A2 adenosine receptor binding, displacement of 3H-CGS 21680, rat brain striatum membranes. As to the method: Non-specific binding is assessed in the presence of 20 μm 2-chloroadenosine.
(§1) The assays are run in glass test tubes in duplicate at 25° C. Once the membranes are added, the tubes are vortexed and incubated at 25° C. for 60 minutes (A1 assay) or 90 minutes (A2 assay) on a rotary shaker. The assay tubes are vortexed halfway through the incubation and again near the end. The assays are terminated by rapid filtration through 2.4 cm GF/B filters using a Brandel Cell Harvestor. The test tubes are washed three times with cold 50 mM tris-HCl (pH 7.7 or 7.4), with filtration being completed within 15 seconds. The damp filter circles are placed in glass scintillation vials filled with 10 ml of Aquasol II (New England Nuclear). The vials are allowed to shake overnight on a rotary shaker and are placed into a liquid scintillation analyzer for two minute counts. IC50 values for receptor binding, i.e. the concentration at which a compound of Formula I displaced the radiolabeled standard, are obtained using a curve-fitting computer program (RS/1, Bolt, Beranek and Newman, Boston, Mass.).
In general terms: In a radioligand displacement assay an active substance lowers the binding of a labelled ligand.

In series [1] the test system is spontaneously hypertensive rat (SHR). The series can be described thus: Oral antihypertensive activity in conscious spontaneously hypertensive rat (SHR). In kind it is in vivo. The note with it: D signifies decrease, I signifies increase. As to the method:
The oral antihypertensive activity of compounds of Formula I are examined in conscious spontaneously hypertensive rats. The rats are anesthetized with sodium phenobarbitol (50 mg/kg i.p.). A telemetry transducer is implanted into the rats abdomen via midline incision. The cannula of the transducer is inserted into the abdominal aorta to allow direct measurement of arterial pressure in the conscious SHR. The transducer is secured to the abdominal wall. After recovery from surgery (minimum of seven days), the SHR are placed on a receiver plate and the transducer/transmitter is activated. Systolic, diastolic and mean arterial pressure and heart rate are recorded for 1.5 hours in the unrestrained conscious rat to establish a stable baseline. Each rat then received a single dose of the compound of Formula I to be tested, or vehicle, and changes in arterial pressure and heart rate are monitored for 20 hours and recorded.

In the next series the target is T2, A1 receptor (Rattus norvegicus, UniProt P25099).
T2 construct: using a membrane preparation of whole rat brain; from tissue; host or cells: whole rat brain membranes
T2 sequence (P25099 1-326): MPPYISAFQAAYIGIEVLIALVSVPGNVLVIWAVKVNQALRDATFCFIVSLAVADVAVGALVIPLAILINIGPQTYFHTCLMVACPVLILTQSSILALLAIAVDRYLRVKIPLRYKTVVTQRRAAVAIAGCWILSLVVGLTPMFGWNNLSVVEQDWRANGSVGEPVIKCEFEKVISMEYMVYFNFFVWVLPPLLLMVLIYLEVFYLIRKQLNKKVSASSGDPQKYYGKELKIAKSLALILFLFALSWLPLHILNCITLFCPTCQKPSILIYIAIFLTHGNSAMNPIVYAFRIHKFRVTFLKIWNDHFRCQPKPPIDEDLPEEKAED
Put plainly: A1 adenosine receptor binding, displacement of 3H-CHA, whole rat brain membranes. The conditions noted are these: 3H-CHA displacement, 25° C., 60 minutes. As to the method: Non-specific binding is assessed in the presence of 1 mM theophylline.
as §1

Series [2] concerns normotensive anesthetized rat. The series can be described thus: Mean arterial blood pressure and heart rate in normotensive anesthetized rat. The conditions noted are these: for Anesthetized Rat HR/ED25: intravenous dose lowering heart rate by 25%; for Anesthetized Rat MAP/ED25: intravenous dose lowering mean arterial pressure by 25%. In kind it is in vivo. As to the method:
Normotensive rats are anesthetized with sodium pentobarbital (50 mg/kg, i.p.) and placed on a heated surgical table. Cannulas are inserted into the femoral artery and veined to allow the measurement of arterial pressure and to facilitate the intravenous administration of test compounds. The animals are allowed to equilibrate for 10 minutes after surgery. Mean arterial pressure is continuously measured and recorded and heart rate is monitored using the arterial pressure pulse to trigger a cardiotachometer. After baseline parameters are established and recorded, increasing doses (1, 3, 10, 30, 100, 300 and 1000 μg/kg) of the compound of Formula I to be tested are administered intravenously. Maximal changes in the cardiovascular parameters are observed after each dose of the adenosine agonist. Only one compound is administered per rat.

Setting [3] is: rat adipocytes, norepinephrine-stimulated.
Setting [4] is: 50% reduction in tension of rings contracted with 3 μM PGF2a, read-out: Vasorelaxation in Swine Coronary Artery/IC50.
The mark [5] stands for this setting: 3H-CGS 21680 displacement, rat brain striatum membranes, 25° C., 90 minutes, read-out: Adenosine Receptor Binding Activity/IC50 (nM) A2.
The mark [6] stands for this setting: Adipocyte, rat adipocytes, norepinephrine-stimulated.
[7] abbreviates: Sus scrofa, read-out: Vasorelaxation in Swine Coronary Artery/IC50 (μM).
[8] abbreviates: Sus scrofa, read-out: Vasorelaxation (IC50).

T1 sequence (P30543 whole entry): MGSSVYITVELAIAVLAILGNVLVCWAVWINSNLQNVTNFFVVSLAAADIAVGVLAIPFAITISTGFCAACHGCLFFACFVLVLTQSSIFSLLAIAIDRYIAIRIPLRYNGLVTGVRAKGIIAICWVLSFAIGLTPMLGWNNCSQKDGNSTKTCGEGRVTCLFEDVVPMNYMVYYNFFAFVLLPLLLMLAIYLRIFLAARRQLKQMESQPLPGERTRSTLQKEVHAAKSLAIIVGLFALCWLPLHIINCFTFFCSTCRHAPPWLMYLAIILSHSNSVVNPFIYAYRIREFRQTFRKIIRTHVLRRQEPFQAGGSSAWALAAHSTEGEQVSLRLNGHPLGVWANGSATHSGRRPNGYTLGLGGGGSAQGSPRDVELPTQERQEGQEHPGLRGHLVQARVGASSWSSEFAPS

On to `CCNC(=O)C1CC(n2cnc3c(N[C@H](C)Cc4ccc(Cl)s4)ncnc32)C(O)C1O` (single isomer, unassigned; (-)) [Example 6], for which, in the series with rat adipocytes (setting [3]), the EC50 – broadly, the concentration that produces a half-maximal response – came out at 0.76 nM. The IC50 in the series with swine coronary arteries (setting [4]) is 0.021 µM; on A2 receptor (setting [5]), 12.9 nM; at A1 receptor, 2.69 nM. Moreover, the “SHR HR/%” value in series [1] (single oral dose 1 mg/kg) is reported as 7 (I) %. The “SHR MAP/%” value in series [1] (single oral dose 1 mg/kg) is 18 (D) %.

With `C[C@H](Cc1ccccc1)Nc1ncnc2c1ncn2[C@@H]1O[C@H](CO)[C@@H](O)[C@H]1O` [R-PIA, R-phenylisopropyladenosine, reference compound], the EC50 in the series with rat adipocytes (setting [3]) turned out to be 1 nM. For the same compound, in the series with swine coronary arteries (literature compounds, Table V, methods as above, unit inferred, read-out: Vasorelaxation (IC50)), the IC50 was found to be 0.76 µM.

Turning to `CCNC(=O)[C@H]1C[C@@H](n2cnc3c(N[C@H](C)Cc4ccc(Cl)s4)ncnc32)[C@@H]2OC(=S)O[C@@H]21` [Example 46, (2S)-2a,3a-dihydroxy-4β-[N6-[2-(5-chloro-2-thienyl)-(1R)-1-methylethyl]amino-9-adenyl]cyclopentane-1β-N-ethylcarboxamide-2,3-thiocarbonate], in the series on rat adipocytes (setting [6]), the EC50 was 4 nM. For the same compound, the IC50 with swine coronary arteries (setting [7]) worked out at 3.52 µM; on A2 receptor (setting [5]), 81 nM; on A1 receptor, 13.5 nM.

Regarding `CCNC(=O)C1CC(n2cnc3c(NCCc4cccs4)ncnc32)C(O)C1O` (single isomer, unassigned; (-)) [Example 26, (−)-N^6-[(thiophen-2″-yl)ethan-2-yl]carbocyclic adenosine-5′-N-ethyl carboxamide], in series [2], the “Anesthetized Rat HR/ED25” value was above 0.03 mg/kg and the “Anesthetized Rat MAP/ED25” value turned out to be 0.004 mg/kg. For the same compound, in the series on rat adipocytes (1 μM compound versus positive control, rat adipocytes, norepinephrine-stimulated), the “% Inhibition of glycerol production, 1 μM” value is recorded as 96%. For the same compound, the EC50 in the series with rat adipocytes (setting [3]) stood at 89 nM. Also, the IC50 in the series on swine coronary arteries (setting [4]) is 0.082 µM. In addition, the IC50 on A2 receptor (setting [5]) was found to be 63.1 nM. Moreover, in series [1] (single oral dose 2.5 mg/kg), the “SHR HR/%” value is 3 (I) % and the “SHR MAP/%” value is 41 (D) %. Besides, the IC50 on A1 receptor stood at 87.1 nM.

`CO[C@@H]1[C@H](O)[C@@H](CO)O[C@H]1n1cnc2c(N[C@@H]3CC=CC[C@H]3c3cccs3)ncnc21` (relative stereo) [Example 49, N^6-[trans-5-(2-thienyl)cyclohex-1-en-4-yl]-2′-O-methyladenosine]: the EC50 in the series with rat adipocytes (setting [6]) was found to be 18.6 nM. Further, the IC50 with swine coronary arteries (setting [7]) was 9.81 µM; on A2 receptor (setting [5]) it was 2880 nM; at A1 receptor it was 69 nM.

Regarding `CCNC(=O)[C@H]1C[C@@H](n2cnc3c(NC(Cc4cccs4)C(C)C)ccnc32)[C@H](O)[C@@H]1O` (stereo partly drawn) [Example 38, [1S-[1a,2b,3b,4a]]-4-[7-[[2-(2-thienyl)-1-isopropylethyl]amino]-3H-imidazo[4,5-b]pyridin-3-yl]-N-ethyl-2,3-dihydroxycyclopentanecarboxamide], the melting point (in general, the temperature, or range, at which the solid turns liquid) lay in the range of 75 to 85 °C. The IC50 in the series with swine coronary arteries (setting [7]) stood at 0.47 µM. In addition, the IC50 at A2 receptor (setting [5]) amounted to 55.5 nM. This compound also displayed an IC50 at A1 receptor of 5.7 nM.

Turning to `OC[C@H]1O[C@@H](n2cnc3c(NC4CCCC4)ncnc32)[C@H](O)[C@@H]1O` [CPA, N-cyclopentyladenosine], in the series on rat adipocytes (Rattus norvegicus, Adipocyte, read-out: % Inhibition of glycerol production, 0.1 μM), the inhibition (commonly how much of the control response was suppressed) at 0.1 µM is 97%. In addition, in the series with rat adipocytes (Rattus norvegicus, Adipocyte), the inhibition at 1 µM is 100% and the EC50 was found to be 0.31 nM. Besides, the IC50 in the series with swine coronary arteries (setting [8]) worked out at 3.18 µM. Further, the IC50 on A2 receptor worked out at 1580 nM.

The compound `CCNC(=O)[C@H]1C[C@@H](n2cnc3c(N[C@H](C)Cc4cccs4)ccnc32)[C@H](O)[C@@H]1O` [Example 40, [1S-[1a,2b,3b,4a(S*)]]-4-[7-[[2-(2-thienyl)-1-methylethyl]amino]-3H-imidazo[4,5-b]pyridin-3-yl]-N-ethyl-2,3-dihydroxycyclopentane-carboxamide] gave a melting point of 155 to 160 °C. Besides, the IC50 in the series on swine coronary arteries (setting [7]) was determined as 283 µM. Also, the IC50 at A2 receptor (setting [5]) came to 68.8 nM. Moreover, the IC50 at A1 receptor was 9.3 nM.

Turning to `CCNC(=O)[C@H]1O[C@@H](n2cnc3c(N)nc(NCCc4ccc(CCC(=O)O)cc4)nc32)[C@H](O)[C@@H]1O` [CGS21680, 2-[[2-[4-[2-carboxethyl)phenyl]ethyl]amino]-N-ethylcarboxamidoadenosine], the inhibition at 1 µM in the series on rat adipocytes (Rattus norvegicus, Adipocyte) is 0%. Also, in the series on rat adipocytes (statement in words), the antilipolytic activity result is recorded as “do not exhibit antilipolytic activity”. Also, the IC50 with swine coronary arteries (setting [8]) is 0.08 µM.

With `CCNC(=O)C1CC(n2cnc3c(NCCNc4nc5ccccc5s4)ncnc32)C(O)C1O` (racemic) [Example 29, (±)-N^6-[2-(2′-aminobenzothia-zoly)ethyl]carbocyclic adenosine-5′-N-ethyl carboxamide], in series [2], the “Anesthetized Rat HR/ED25” value is 0.031 mg/kg and the “Anesthetized Rat MAP/ED25” value came out at 0.016 mg/kg. Moreover, the IC50 in the series with swine coronary arteries (setting [4]) was found to be 22 µM. Moreover, in series [1] (single oral dose 5 mg/kg), the “SHR HR/%” value is recorded as 12 (D) % and the “SHR MAP/%” value is recorded as 18 (D) %.

Values taken from patent US6392049B1, “Process for preparing 2,4-dihydroxypyridine and 2,4-dihydroxy-3-nitropyridine” (Aventis Pharmaceuticals Inc., priority 1996, dated 2002).
